Each block holds one molecule with its values, some of them ahead of it.
What was measured:
rL-FABP = target: T1, rL-FABP (Mus musculus, UniProt P12710); experiment: Displacement of ANS by fatty acids, WT rL-FABP; assay type: binding
T1 construct: made in house; host or cells: Escherichia coli BL21 (DE3)
T1 sequence (P12710 1-127): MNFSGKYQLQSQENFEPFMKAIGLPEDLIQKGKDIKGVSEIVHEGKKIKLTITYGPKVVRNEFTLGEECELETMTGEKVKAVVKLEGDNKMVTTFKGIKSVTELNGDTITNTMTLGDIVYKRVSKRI
Protocol: (§1) Lipid displacement assays were adapted from previous publications, [30]. Briefly, lipids were used to displace ANS bound to rL-FABP to assess how 4-HNE modification affects affinity towards more biologic ligands. Lipid stocks were diluted in absolute ethanol (10 mM, 5 mM, 1 mM, 0.1 mM) and prepared in a nitrogen gas chamber. Using conditions similar to ANS binding, increasing concentrations of FAs [stearate (SA), oleate (OA), and LA] were titrated into a pre-equilibrated solution containing 45 µM ANS, 1 µM r-LFABP, and 50 mM tricine (pH 8.0). The sample was mixed for an additional 30 seconds and the excitation and emission of ANS was measured as mentioned, where the loss of fluorescence indicates affinity towards the lipid.
(§2) For the displacement assays, one-site inhibition analysis of the data was utilized based on the fit of the data (instead of a two-site inhibition analysis) (eq2). Fluorescence counts that are inhibitable are denoted as bi, and residual counts are br. The concentration of OA, SA or LA is denoted as [FA]. The Hill constant, η, indicates the cooperativity between the binding sites, where if η >1 the sites are positively cooperative, η <1 the site are negatively cooperative, and if η = 1 the sites are non-cooperative. [drawing 2] (2)

4-HNE adducted rL-FABP = target: T2, 4-HNE adducted rL-FABP (Mus musculus, UniProt P12710); experiment: Displacement of ANS by fatty acids, 1X 4-HNE treated rL-FABP; assay type: binding
T2 construct: made in house; host or cells: Escherichia coli BL21 (DE3)
T2 sequence (P12710 1-127): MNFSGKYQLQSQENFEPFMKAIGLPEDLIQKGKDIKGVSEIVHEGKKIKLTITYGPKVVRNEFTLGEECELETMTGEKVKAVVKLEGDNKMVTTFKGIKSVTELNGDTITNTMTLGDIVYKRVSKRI
Protocol: as §1, §2

L-FABP [1] = conditions: following ethanol consumption in rats; cited from earlier work
FABP1 = conditions: 4 week ramped ethanol feeding regimen; cited from earlier work
L-FABP [2] = tested on: L-FABP
Description: All protocols were approved by the Institutional Animal Care and Use Committee (IACUC) at the University of Colorado Anschutz Medical Campus. Male C57Bl/6J mice were fed a modified Lieber-DeCarli Diet (BioServ, Frenchtown, NJ) consisting of 45% fat-derived calories and 15% protein-derived calories with the remaining caloric content derived from either ethanol or maltose-dextrin. Mice were fed for a period of 6 weeks according to previous laboratory studies, [20]. At termination, the liver was harvested for whole tissue and histological evaluation as previously described, [21]. Subcellular fractions were isolated from whole liver tissue using sucrose gradient centrifugation.
200 ug of whole cell homogenates from both control and ethanol mice (n = 6/group) were incubated with 5 ug of mouse monoclonal ubiquitin antibody (Abcam, cat# ab411) for 2 hours at 4°C on a rotator to allow ubiquitin protein to bind to antibody. 100 ul of a 50% Protein G slurry (prepared and stored in 0.02% sodium azide and PBS, pH 7.4) was added to the reaction and incubated at 4°C rotating overnight. Samples were washed 5×5 minutes in PBST (PBS +[…]) and denatured in SDS-PAGE loading buffer at 95°C for 5 minutes. Immunoprecipitated protein was separated via SDS-PAGE and transferred to PVDF, and immunoblotted for L-FABP (Abcam, cat # 7847). Density of ubiquitinated bands were normalized to levels of L-FABP/β-Actin determined by immunoblotting.
Total RNA was isolated from […] of frozen tissue from control and ethanol-fed mice (n = 3) using RNeasy Mini Kits (Qiagen,Valencia, CA).

apo rL-FABP = target: T3, apo rL-FABP (Mus musculus, UniProt P12710); experiment: Thermal denaturation of apo rL-FABP (UV-monitored); conditions: native apo rL-FABP, 0X 4-HNE
T3 construct: made in house; host or cells: Escherichia coli BL21 (DE3)
T3 sequence (P12710 1-127): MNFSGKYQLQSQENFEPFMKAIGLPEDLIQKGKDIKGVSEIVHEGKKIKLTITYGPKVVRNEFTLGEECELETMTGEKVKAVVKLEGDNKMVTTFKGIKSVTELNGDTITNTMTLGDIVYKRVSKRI
Protocol: (§3) The stability of rL-FABP was assessed using UV-monitored heating experiments. Native (apo and holo) and 4-HNE modified (apo and holo) rL-FABP (0.8 mg/ml) was thermally denatured in 50 mM tricine buffer (pH 8.0) at 40–95°C over 1.5 hours in a 0.7 mL quartz cell (Starna Cells). Absorbance of rL-FABP was monitored at 260–360 nm using a Chirascan Plus Spectrometer (Applied Photophysics, Leatherhead, Surrey, UK) once per minute. Temperature was continuously ramped 1°C/min. Light scattering was recorded continuously at 360 nm to monitor protein aggregation. Temperature of aggregation (Tm) was determined using Global Analysis T-Ramp software provided by Applied Photophysics (Pro-Data Global3 v1.1.0) following baseline correction.

holo rL-FABP = target: T4, holo rL-FABP (Mus musculus, UniProt P12710); experiment: Thermal denaturation of holo rL-FABP (UV-monitored); conditions: native holo rL-FABP (linoleic acid bound), semi-quantitative
T4 construct: made in house; host or cells: Escherichia coli BL21 (DE3)
T4 sequence (P12710 1-127): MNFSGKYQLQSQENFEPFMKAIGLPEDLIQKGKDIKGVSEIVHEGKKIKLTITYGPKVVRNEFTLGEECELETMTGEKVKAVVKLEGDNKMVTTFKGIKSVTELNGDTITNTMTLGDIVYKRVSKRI
Protocol: as §3

br (counts residual) (rL-FABP): 145,800±14,400 AFU
n (hill coefficient) (rL-FABP): 2.75±0.264
bi (counts inhibitable) (rL-FABP; 45 µM ANS, 1 µM protein): 698,800±19,400 AFU
Ki (rL-FABP; 45 µM ANS, 1 µM protein, read-out: ki (inhibition constant)): 1190 ± 130 nM
bi (counts inhibitable) (4-HNE adducted rL-FABP; 1X 4-HNE (53.95 µM) treated rL-FABP): 411,800±36,800 AFU
Ki (4-HNE adducted rL-FABP; 1X 4-HNE (53.95 µM) treated rL-FABP, read-out: ki (inhibition constant)): 4410 ± 1660 nM
br (counts residual) (4-HNE adducted rL-FABP; 1X 4-HNE treated rL-FABP): 81,300±30,500 AFU
n (hill coefficient) (4-HNE adducted rL-FABP; 1X 4-HNE treated rL-FABP): 2.74±0.37
reduction of maximal binding to the FA by 4-HNE (4-HNE adducted rL-FABP; 1X 4-HNE treated versus WT rL-FABP): 41%
Molecule: CCCCCCCCCCCCCCCCCC(=O)O [Stearic Acid]

Molecule: CCO [ethanol]
decrease in expression of L-FABP (L-FABP [1]): ~30%
decrease in the mRNA of FABP1 (FABP1): > 50%
poly-ubiquitinated L-FABP normalized to total L-FABP (L-FABP [2]; co-immunoprecipitation, ethanol diet 6 weeks, P<0.001, n = 6): significant increase
decrease in FABP1 mRNA (RT-PCR) (L-FABP [2]; ethanol diet 6 weeks versus control): 1.6 fold
relative expression of FABP1 (L-FABP [2]; ethanol livers, control 1.00±0.084, P<0.05, n = 3): 0.617±0.069
reduction in L-FABP protein (1D Western Blot) (L-FABP [2]; whole cell lysates, ethanol diet 6 weeks versus control, P<0.001, n = 6): ~80%

B1: apo rL-FABP: purified, delipidated recombinant mouse liver fatty acid-binding protein (unbound) (protein, UniProt P12710 1-127, looked up)
Fatty acid-binding protein, …: MNFSGKYQLQSQENFEPFMKAIGLPEDLIQKGKDIKGVSEIVHEGKKIKLTITYGPKVVRNEFTLGEECELETMTGEKVKAVVKLEGDNKMVTTFKGIKSVTELNGDTITNTMTLGDIVYKRVSKRI
modifications: delipidated
Tm (temperature of aggregation) (apo rL-FABP): 71.82±0.09 °C

B2: holo rL-FABP: recombinant mouse L-FABP incubated with 1 mM linoleic acid (lipid-bound) (protein, UniProt P12710 1-127, looked up)
Fatty acid-binding protein, …: MNFSGKYQLQSQENFEPFMKAIGLPEDLIQKGKDIKGVSEIVHEGKKIKLTITYGPKVVRNEFTLGEECELETMTGEKVKAVVKLEGDNKMVTTFKGIKSVTELNGDTITNTMTLGDIVYKRVSKRI
modifications: linoleic acid bound
Tm (temperature of aggregation) (holo rL-FABP): 86.09±0.57 °C

— article PMC3368874, “Characterization of 4-HNE Modified L-FABP Reveals Alterations in Structural and Functional Dynamics” (PLoS ONE, 2012)
